Experimental data published in patent US20200261534A1, “NEW TREATMENTS OF MULTIPLE MYELOMA” (priority 2017, published 2020).
Like-named read-outs stand apart in the source and are kept apart here. Starred links: 1 amine or outer side, 2 acyl side, 3 side chain; linkers in the order of their positions; H or OH if unused. Positions of bridges follow the written chain, without caps; N, C: chain ends. Non-standard residues stand in square brackets, D forms with d. Residues, ends and D or L forms follow the SMILES beside them. No end group written: not given here. ξ: configuration not given here. ξαMeNle(6-ylidene) = CC(CCCC=[*:3])(N[*:1])C(=O)[*:2]; X1 = CC(CCCCCCC=[*:3])(N[*:1])C(=O)[*:2]

Key:
Format in all cases: cell-based
[1] = tested on: A549, epithelial (lung cancer); assay: MTT viability assay, A549
Experimental: A549, epithelial (lung cancer), ATCC: CCL-185
(§1) Cell lines A549, MCF-7 and RAMOS were cultured in incubator under CO2 (6%) at 37° C. in DMEM high glucose (Dulbecco's Modified Eagle Solution, Gibco-BRL 31966-21) medium with 10% fetal bovine serum inactivated (FBS) (Gibco-BRL 10106-169). Cell lines HL-60 and MM.1S were cultured in incubator at 37° C. in RPMI-1640 (Sigma R8758) medium with 10% of fetal bovine serum inactivated (FBS) and 2 mM glutamine (Sigma G7513). Cell lines BJ were cultured in incubator under CO2 (6%) at 37° C. in Eagle's Minimum Essential Medium (Sigma, M-2279) with 10% fetal bovine serum inactivated (FBS) (Gibco-BRL 10106-169).
During the amplification step and the assays adherent cells were rinsed with DPBS (Dulbecco's Phosphate Buffered Saline, Sigma D1283) three times and afterward treated for 5 minutes with trypsin ([…]) (Gibco-BRL, 15400054) in solution of DPBS at 37° C., and, once detached, transferred in the culturing medium. No-adherent cells were centrifuged and transferred in the culturing medium. Cells were counted in a Neubauer chamber after labelling with Tripan-Blue. […]
(§2) Cells were incubated with the compounds at the indicated concentrations during 24-72 h in incubator under CO2 atmosphere at 37° C. Then, cell viability was measured by means of MTT (3-(4,5-dimethylthiazol-2-yl)-2,5-diphenyltetrazolium bromide) assay. Stock solution of MTT (475989 Calbiochem) was 5 mg/ml in PBS. 1×.10 μl/well of MTT solution were added and the plate was incubated for 3-4 hr. The medium was discarded and 100 μl of extracting buffer (PBS 1×, 15% SDS, 50% […] N,N-Dimethylformamide, pH 4.7) were added to each well. Plates were incubated for 16 h at room temperature under orbital shaking. Absorbance at 570 nm was finally measured. As negative control (experiment noise) 3 wells were treated with 20 μl/well of a solution of SDS 10% in H2O.
Data analysis was performed calculating the percentage of cell viability normalized vs. the values of negative control, which was considered equal to 100%. The dose/response curve was fitted through the sigmoidal equation dose-response (variable slope) and the IC50 values were calculated as follow: […]

[2] = tested on: MM.1S, B Lymphoblast (multiple myeloma); assay: MTT viability assay, MM.1S
Experimental: MM.1S, B Lymphoblast (multiple myeloma), ATCC: CRL-2974
as §1
During the amplification step and the assays adherent cells were rinsed with DPBS (Dulbecco's Phosphate Buffered Saline, Sigma D1283) three times and afterward treated for 5 minutes with trypsin ([…]) (Gibco-BRL, 15400054) in solution of DPBS at 37° C., and, once detached, transferred in the culturing medium. No-adherent cells were centrifuged and transferred in the culturing medium. Cells were counted in a Neubauer chamber after labelling with Tripan-Blue.
Cells were seeded at a density of 10000 cells/well in 100 μl of medium in 96 well plates. After 24 h, the compounds to be tested were added to calculate the dose/response curve at the starting concentration of 100 μM with serial dilutions (1:1). Controls are the untreated cells. Each experiment was performed in triplicate.
as §2
Data analysis was performed calculating the percentage of cell viability normalized vs. the values of negative control, which was considered equal to 100%. The dose/response curve was fitted through the sigmoidal equation dose-response (variable slope) and the IC50 values were calculated as follow:
Y=Bottom+(Top−Bottom)/(1+10^{[(LogIC50−X)*HillSlope]},
All cell lines were cultured in incubator at 37° C. in RPMI-1640 (Sigma R8758) medium with 10% of fetal bovine serum inactivated (FBS) and 2 mM glutamine (Sigma G7513). During the amplification step cells were centrifuged and transferred into the culturing medium. Cells were counted in a Neubauer chamber after labelling with Tripan-Blue.
as §2, with “peptidomimetic compound (S09)” for “compounds”
Cell lines A549 and MBA-MD231 were cultured in incubator under CO2 (6%) at 37° C. in DMEM high glucose (Dulbecco's Modified Eagle Solution, Gibco-BRL 31966-21) medium with 10% fetal bovine serum inactivated (FBS) (Gibco-BRL 10106-169). […]

[3] = tested on: RAMOS, B lymphocyte (Burkitt's Lymphoma); assay: MTT viability assay, RAMOS
Experimental: RAMOS, B lymphocyte (Burkitt's Lymphoma), ATCC: CRL-1596 […] During the amplification step and the assays adherent cells were rinsed with DPBS (Dulbecco's Phosphate Buffered Saline, Sigma D1283) three times and afterward treated for 5 minutes with trypsin ([…]) (Gibco-BRL, 15400054) in solution of DPBS at 37° C., and, once detached, transferred in the culturing medium. No-adherent cells were centrifuged and transferred in the culturing medium. Cells were counted in a Neubauer chamber after labelling with Tripan-Blue. […] Cells were seeded at a density of 10000 cells/well in 100 μl of medium in 96 well plates. […] Controls are the untreated cells. Each experiment was performed in triplicate. Cells were incubated with the compounds at the indicated concentrations during 24-72 h in incubator under CO2 atmosphere at 37° C. […] Stock solution of MTT (475989 Calbiochem) was 5 mg/ml in PBS. 1×.10 μl/well of MTT solution were added and the plate was incubated for 3-4 hr. […] Plates were incubated for 16 h at room temperature under orbital shaking. Absorbance at 570 nm was finally measured. […] The dose/response curve was fitted through the sigmoidal equation dose-response (variable slope) and the IC50 values were calculated as follow: Y=Bottom+(Top−Bottom)/(1+10^{[(LogIC50−X)*HillSlope]},

[4] = A549, same protocol as Example 2, Table 6, read-out: Compound (IC50)
[5] = MM.1S, same protocol as Example 2, Table 6, read-out: Compound (IC50)
[6] = Ramos, same protocol as Example 2, Table 6, read-out: Compound (IC50)

| Molecule | IC50 [1, 4] [µM] | IC50 [2, 5] [µM] | IC50 [3, 6] [µM] | IC50 ([1]; A549, MTT, 24-72 h, Table 12, read-out: IC50 values) [µM] | IC50 ([1]; A549, MTT, incubation 24-72 h, Table 3, read-out: IC50 values) [µM] | IC50 ([2]; MM1S, MTT, 24-72 h, Table 7, read-out: IC50 values in μM for S09) [µM] | IC50 ([2]; MM.1S, MTT, incubation 24-72 h, Table 3, read-out: IC50 values) [µM] | IC50 ([3]; Ramos, MTT, incubation 24-72 h, Table 3, read-out: IC50 values) [µM] | IC50 [1] [µM] | IC50 [2] [µM] | IC50 ([2]; 24 h) [µM] | IC50 ([2]; 72 h) [µM] | IC50 [3] [µM] |
| --- | --- | --- | --- | --- | --- | --- | --- | --- | --- | --- | --- | --- | --- |
| CC[C@H](C)[C@@H]1NC(=O)[C@H](Cc2ccc(O)cc2)NC(=O)[C@H](C)NC(=O)[C@H]([C@@H](C)O)NC(=O)[C@H](C)NC(=O)C(C)(NC(=O)[C@H](CCCCN)NC(=O)[C@H](CC(C)C)NC(=O)[C@@H](NC(=O)[C@@H](NC(=O)[C@@H](NC(=O)[C@H](CCCCN)NC(=O)[C@@H]2CCCN2C(=O)[C@H](C)N)C(C)C)C(C)C)[C@@H](C)CC)CCCCCCC=CCCCC(C)(C(=O)N[C@H](C(=O)O)C(C)C)NC(=O)[C@H](CC(C)C)NC1=O (stereo partly shown) [IDP-S23, APKVVILKXATAYILXV] (H-APKVVILK[X1]ATAYIL[ξαMeNle(6-ylidene)]V-OH; staple 9-16) | > 100 | > 100 | > 100 |  |  |  |  |  |  |  |  |  |  |
| CC[C@H](C)[C@H](NC(=O)[C@H](Cc1ccc(O)cc1)NC(=O)[C@H](C)NC(=O)C1(C)CCCC=CCCCCCCC(C)(NC(=O)[C@H](CCCCN)NC(=O)[C@@H]2CCCN2C(=O)[C@H](C)N)C(=O)N[C@@H](C(C)C)C(=O)N[C@@H]([C@@H](C)CC)C(=O)N[C@@H](CC(C)C)C(=O)N[C@@H](CCCCN)C(=O)N[C@@H](CCCCN)C(=O)N[C@@H](C)C(=O)N1)C(=O)N[C@@H](CC(C)C)C(=O)N[C@@H](CO)C(=O)O (stereo partly shown) [S09, APKXVILKKAXAYILS—OH] (H-APK[X1]VILKKA[ξαMeNle(6-ylidene)]AYILS-OH; staple 4-11; N-terminus assumed) | 9.4 ± 4.1 | ~6.2 | ~28 | 6.3 ± 0.5 | 9.4 ± 4.1 | 7.5 | ~6.2 | ~28 |  |  |  |  |  |
| CC[C@H](C)[C@H](NC(=O)[C@H](Cc1ccc(O)cc1)NC(=O)[C@H](C)NC(=O)C1(C)CCCC=CCCCCCCC(C)(NC(=O)[C@H](CCCCN)NC(=O)[C@@H]2CCCN2C(=O)[C@H](C)N)C(=O)N[C@@H](C(C)C)C(=O)N[C@@H]([C@@H](C)CC)C(=O)N[C@@H](Cc2ccccc2)C(=O)N[C@@H](CCCCN)C(=O)N[C@@H](CCCCN)C(=O)N[C@@H](C)C(=O)N1)C(=O)N[C@@H](CC(C)C)C(=O)N[C@@H](CO)C(=O)O (stereo partly shown) [S14, APKXVIFKKAXAYILS—OH] (H-APK[X1]VIFKKA[ξαMeNle(6-ylidene)]AYILS-OH; staple 4-11; N-terminus assumed) |  |  |  |  |  |  |  |  | 9.1 ± 0.8 | 6.6 ± 0.9 | 7 | 7 | 55 |
| RQIKIWFQNRRMKWKKNELKRAFAALRDQI [Int-HI-S6A-F8, reference compound] |  |  |  |  |  |  |  |  | > 100 | > 100 |  |  | > 100 |
